Patent US9211310B2, “Use of a Chinese medicine composition in preparing medicaments for treating secondary prevention of myocardial infarction” (TASLY PHARMACEUTICAL GROUP CO., LTD, priority 2010, dated 2015)

Test system: patients after acute myocardial infarction
Assay: TCM symptom score, total and single (chest pain, chest tightness, short breath, fatigue, palpitation, spontaneous perspiration, pale complexion), same clinical trial
Type: in vivo, human
Excerpt: 3508 patients who were in accordance with the diagnostic standards of AMI for 28 days to 2 years and differentiated as Qi deficiency and blood stagnation syndrome by TCM were studied. 0.5 g Chinese medicine composition prepared by the method of EXAMPLE 1 (Coded as QSYQ) was administrated half an hour after meal, 3 times per day.
They included the overall survival time, angina pectoris score, TCM symptom score and life quality score, where angina pectoris score, TCM symptom score and life quality score were evaluated at randomization, in 1st, 3rd, 6th, 9th, 12th month after treatment and 18th month after follow-up.
The analysis method referred to the angina pectoris score.

[1] = 9 months after treatment-baseline, FAS
[2] = 9 months after treatment-baseline, PP
[3] = 12 months after treatment-baseline, FAS

CC(=O)Oc1ccccc1C(=O)O [Control group, aspirine]
chest pain score 0, percent of patients (6 months after treatment, PP): (42.93%) | chest pain score 3, number of patients (6 months after treatment, PP): 539 | chest pain score 3, percent of patients (6 months after treatment, PP): (37.75%) | chest pain score 6, number of patients (6 months after treatment, PP): 272 | chest pain score 6, percent of patients (6 months after treatment, PP): (19.05%) | chest pain score 9, number of patients (6 months after treatment, PP): 4 | chest pain score 9, percent of patients (6 months after treatment, PP): (0.28%) | chest tightness score 0, number of patients (6 months after treatment, PP): 613 | chest tightness score 0, percent of patients (6 months after treatment, PP): (42.93%) | chest tightness score 3, number of patients (6 months after treatment, PP): 539 | chest tightness score 3, percent of patients (6 months after treatment, PP): (37.75%) | chest tightness score 6, number of patients (6 months after treatment, PP): 272 | chest tightness score 6, percent of patients (6 months after treatment, PP): (19.05%) | chest tightness score 9, number of patients (6 months after treatment, PP): 4 | chest tightness score 9, percent of patients (6 months after treatment, PP): (0.28%) | change of chest pain score 0, number of patients [1]: 1022 | change of chest pain score 0, percent of patients [1]: (59.80%) | change of chest pain score 3, number of patients [1]: 463 | change of chest pain score 3, percent of patients [1]: (27.09%) | change of chest pain score 6, number of patients [1]: 124 | change of chest pain score 6, percent of patients [1]: (7.26%) | change of chest pain score 9, number of patients [1]: 6 | change of chest pain score 9, percent of patients [1]: (0.35%) | change of chest pain score −3, number of patients [1]: 81 | change of chest pain score −3, percent of patients [1]: (4.74%) | change of chest pain score −6, number of patients [1]: 13 | change of chest pain score −6, percent of patients [1]: (0.76%) | change of chest pain score −9, number of patients [1]: 0 | change of chest pain score −9, percent of patients [1]: (0.00%) | change of chest tightness score 0, number of patients [1]: 1007 | change of chest tightness score 0, percent of patients [1]: (58.92%) | change of chest tightness score 3, number of patients [1]: 534 | change of chest tightness score 3, percent of patients [1]: (31.25%) | change of chest tightness score 6, number of patients [1]: 68 | change of chest tightness score 6, percent of patients [1]: (3.98%) | change of chest tightness score 9, number of patients [1]: 4 | change of chest tightness score 9, percent of patients [1]: (0.23%) | change of chest tightness score −3, number of patients [1]: 93 | change of chest tightness score −3, percent of patients [1]: (5.44%) | change of chest tightness score −6, number of patients [1]: 3 | change of chest tightness score −6, percent of patients [1]: (0.18%) | change of chest tightness score −9, number of patients [1]: 0 | change of chest tightness score −9, percent of patients [1]: (0.00%) | change of chest pain score 0, number of patients [2]: 826 | change of chest pain score 0, percent of patients [2]: (58.58%) | change of chest pain score 3, number of patients [2]: 409 | change of chest pain score 3, percent of patients [2]: (29.01%) | change of chest pain score 6, number of patients [2]: 106 | change of chest pain score 6, percent of patients [2]: (7.52%) | change of chest pain score 9, number of patients [2]: 4 | change of chest pain score 9, percent of patients [2]: (0.28%) | change of chest pain score −3, number of patients [2]: 58 | change of chest pain score −3, percent of patients [2]: (4.11%) | change of chest pain score −6, number of patients [2]: 7 | change of chest pain score −6, percent of patients [2]: (0.50%) | change of chest pain score −9, number of patients [2]: 0 | change of chest pain score −9, percent of patients [2]: (0.00%) | change of chest tightness score 0, number of patients [2]: 801 | change of chest tightness score 0, percent of patients [2]: (56.81%) | change of chest tightness score 3, number of patients [2]: 476 | change of chest tightness score 3, percent of patients [2]: (33.76%) | change of chest tightness score 6, number of patients [2]: 62 | change of chest tightness score 6, percent of patients [2]: (4.40%) | change of chest tightness score 9, number of patients [2]: 3 | change of chest tightness score 9, percent of patients [2]: (0.21%) | change of chest tightness score −3, number of patients [2]: 65 | change of chest tightness score −3, percent of patients [2]: (4.61%) | change of chest tightness score −6, number of patients [2]: 3 | change of chest tightness score −6, percent of patients [2]: (0.21%) | change of chest tightness score −9, number of patients [2]: 0 | change of chest tightness score −9, percent of patients [2]: (0.00%) | chest pain score 0, number of patients (9 months after treatment, FAS): 791 | chest pain score 0, percent of patients (9 months after treatment, FAS): (46.04%) | chest pain score 3, number of patients (9 months after treatment, FAS): 618 | chest pain score 3, percent of patients (9 months after treatment, FAS): (35.97%) | chest pain score 6, number of patients (9 months after treatment, FAS): 305 | chest pain score 6, percent of patients (9 months after treatment, FAS): (17.75%) | chest pain score 9, number of patients (9 months after treatment, FAS): 4 | chest pain score 9, percent of patients (9 months after treatment, FAS): (0.23%) | chest tightness score 0, number of patients (9 months after treatment, FAS): 791 | chest tightness score 0, percent of patients (9 months after treatment, FAS): (46.04%) | chest tightness score 3, number of patients (9 months after treatment, FAS): 618 | chest tightness score 3, percent of patients (9 months after treatment, FAS): (35.97%) | chest tightness score 6, number of patients (9 months after treatment, FAS): 305 | chest tightness score 6, percent of patients (9 months after treatment, FAS): (17.75%) | chest tightness score 9, number of patients (9 months after treatment, FAS): 4 | chest tightness score 9, percent of patients (9 months after treatment, FAS): (0.23%) | chest pain score 0, number of patients (9 months after treatment, PP): 661 | chest pain score 0, percent of patients (9 months after treatment, PP): (46.71%) | chest pain score 3, number of patients (9 months after treatment, PP): 519 | chest pain score 3, percent of patients (9 months after treatment, PP): (36.68%) | chest pain score 6, number of patients (9 months after treatment, PP): 233 | chest pain score 6, percent of patients (9 months after treatment, PP): (16.47%) | chest pain score 9, number of patients (9 months after treatment, PP): 2 | chest pain score 9, percent of patients (9 months after treatment, PP): (0.14%) | chest tightness score 0, number of patients (9 months after treatment, PP): 661 | chest tightness score 0, percent of patients (9 months after treatment, PP): (46.71%) | chest tightness score 3, number of patients (9 months after treatment, PP): 519 | chest tightness score 3, percent of patients (9 months after treatment, PP): (36.68%) | chest tightness score 6, number of patients (9 months after treatment, PP): 233 | chest tightness score 6, percent of patients (9 months after treatment, PP): (16.47%) | chest tightness score 9, number of patients (9 months after treatment, PP): 2 | chest tightness score 9, percent of patients (9 months after treatment, PP): (0.14%) | change of chest pain score 0, number of patients [3]: 962 | change of chest pain score 0, percent of patients [3]: (56.29%) | change of chest pain score 3, number of patients [3]: 511 | change of chest pain score 3, percent of patients [3]: (29.90%) | change of chest pain score 6, number of patients [3]: 150 | change of chest pain score 6, percent of patients [3]: (8.78%) | change of chest pain score 9, number of patients [3]: 7 | change of chest pain score 9, percent of patients [3]: (0.41%) | change of chest pain score −3, number of patients [3]: 70 | change of chest pain score −3, percent of patients [3]: (4.10%) | change of chest pain score −6, number of patients [3]: 9 | change of chest pain score −6, percent of patients [3]: (0.53%) | change of chest pain score −9, number of patients [3]: 0 | change of chest pain score −9, percent of patients [3]: (0.00%) | change of chest tightness score 0, number of patients [3]: 933 | change of chest tightness score 0, percent of patients [3]: (54.59%) | change of chest tightness score 3, number of patients [3]: 598 | change of chest tightness score 3, percent of patients [3]: (34.99%) | change of chest tightness score 6, number of patients [3]: 87 | change of chest tightness score 6, percent of patients [3]: (5.09%)
